Results reported in patent US20260022096A1, “NOVEL SULFONAMIDES AND THEIR USE AS NEUROPROTECTIVE AND/OR NEURORESTORATIVE AGENTS” (GENECODE, priority 2022, published 2026).

Target: T1, GFRα1-RET (Homo sapiens, UniProt P56159)
T1 construct: expressed in transfected cells; host or cells: MG87 murine fibroblasts, stably transfected
T1 sequence (P56159 25-429 limits assumed): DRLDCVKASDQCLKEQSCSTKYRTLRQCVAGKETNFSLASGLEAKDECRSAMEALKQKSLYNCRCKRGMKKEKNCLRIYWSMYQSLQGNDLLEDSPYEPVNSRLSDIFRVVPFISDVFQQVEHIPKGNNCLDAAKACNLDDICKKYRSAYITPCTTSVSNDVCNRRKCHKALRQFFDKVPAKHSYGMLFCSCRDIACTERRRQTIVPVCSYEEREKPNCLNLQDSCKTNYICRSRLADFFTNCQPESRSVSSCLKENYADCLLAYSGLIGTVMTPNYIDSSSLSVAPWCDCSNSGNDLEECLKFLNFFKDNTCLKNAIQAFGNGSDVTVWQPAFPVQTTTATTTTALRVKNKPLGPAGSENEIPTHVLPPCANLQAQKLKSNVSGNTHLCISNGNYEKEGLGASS
Test: Elk1 reporter-gene (luciferase) assay in cells expressing GFRα1-RET
Assay type: cell-based
Conditions: MG87 murine fibroblasts stably transfected with PathDetect Elk-1, GFRα1 and RET, 6 concentrations, agonist/activator activity
Method: For ECso determination, a dose-response test was performed using 6 concentrations of each tested compound. Dose-response curves were fitted using the sigmoidal dose-response (variable slope) analysis in GraphPad Prism program (Graph Pad Inc) and ECso of agonist/activator activity was calculated. Dose-response experiments were all performed in duplicate, two times independently.

Row | Structure (SMILES) | EC50 [µM]
1 | CCN(CC)S(=O)(=O)c1cnc(Cl)c(N2[C@@H]3CC[C@H]2CN(C(=O)c2ccc(F)cc2Cl)C3)c1 [compound 032, 6-chloro-5-[(1S,5R)-3-(2-chloro-4-fluoro-benzoyl)-3,8-diazabicyclo[3.2.1]octan-8-yl]-N,N-diethyl-pyridine-3-sulfonamide] | 1 to 10
2 | COc1ccc(S(=O)(=O)N2CCC(c3ccc(F)cc3)CC2)cc1N1[C@@H]2CC[C@H]1CN(C(=O)c1ccc(F)cc1Cl)C2 [compound 039, (2-chloro-4-fluoro-phenyl)-[(1S,5R)-8-[5-[[4-(4-fluorophenyl)-1-piperidyl]sulfonyl]-2-methoxy-phenyl]-3,8-diazabicyclo[3.2.1]octan-3-yl]methanone] | < 1
3 | O=C(c1ccc(F)cc1Cl)N1C[C@H]2CC[C@@H](C1)N2c1cc(S(=O)(=O)N2CCN(CCc3ccc(Cl)cc3)CC2)cc2c1OCC2 [compound 060, (2-chloro-4-fluoro-phenyl)-[(1S,5R)-8-[5-[4-[2-(4-chlorophenyl)ethyl]piperazin-1-yl]sulfonyl-2,3-dihydrobenzofuran-7-yl]-3,8-diazabicyclo[3.2.1]octan-3-yl]methanone] | < 1
4 | CN1CCc2cc(S(=O)(=O)N3CCC(c4ccccc4)CC3)cc(N3[C@@H]4CC[C@H]3CN(C(=O)c3cc(F)c(F)cc3Cl)C4)c21 [compound 120, (2-chloro-4,5-difluoro-phenyl)-[(1S,5R)-8-[1-methyl-5-[(4-phenyl-1-piperidyl)sulfonyl]indolin-7-yl]-3,8-diazabicyclo[3.2.1]octan-3-yl]methanone] | < 1
5 | COC(=O)c1ccc(S(=O)(=O)N2CCC(c3ccccc3)CC2)cc1N1[C@@H]2CC[C@H]1CN(C(=O)c1ccc(F)cc1Cl)C2 [compound 069, methyl 2-[(1S,5R)-3-(2-chloro-4-fluoro-benzoyl)-3,8-diazabicyclo[3.2.1]octan-8-yl]-4-[(4-phenyl-1-piperidyl)sulfonyl]benzoate] | < 1
6 | COc1ccc(S(=O)(=O)N2CCC(Cc3ccccc3)CC2)cc1N1CCN(C(=O)c2ccc(F)cc2Cl)CC1C (racemic) [compound 019, (2-chloro-4-fluoro-phenyl)-[rac-(3S)-4-[5-[(4-benzyl-1-piperidyl)sulfonyl]-2-methoxy-phenyl]-3-methyl-piperazin-1-yl]methanone] | < 1
7 | COc1ccc(S(=O)(=O)N2CCC(CCc3ccccc3)CC2)cc1N1[C@@H]2CC[C@H]1CN(C(=O)c1ccc(F)cc1Cl)C2 [compound 010, (2-chloro-4-fluoro-phenyl)-[(1S,5R)-8-[2-methoxy-5-[[4-(2-phenylethyl)-1-piperidyl]sulfonyl]phenyl]-3,8-diazabicyclo[3.2.1]octan-3-yl]methanone] | < 1
8 | COc1ccc(S(=O)(=O)NC(C)(C)C)cc1N1[C@@H]2CC[C@H]1CN(C(=O)c1ccc(F)cc1Cl)C2 [compound 002] | 1 to 10
9 | C[C@@H]1CN(C(=O)c2ccc(F)cc2Cl)CCN1c1cc(S(=O)(=O)NC(C)(C)C)cc(Cl)c1O [compound 111, N-tert-butyl-3-chloro-5-[(2R)-4-(2-chloro-4-fluoro-benzoyl)-2-methyl-piperazin-1-yl]-4-hydroxy-benzenesulfonamide] | < 1
10 | COc1ccc(S(=O)(=O)N2CCN(CCc3ccc(F)cc3)CC2)cc1N1[C@@H]2CC[C@H]1CN(C(=O)c1ccc(F)cc1Cl)C2 [compound 046, (2-chloro-4-fluoro-phenyl)-[(1S,5R)-8-[5-[4-[2-(4-fluorophenyl)ethyl]piperazin-1-yl]sulfonyl-2-methoxy-phenyl]-3,8-diazabicyclo[3.2.1]octan-3-yl]methanone] | < 1
11 | COc1ccc(S(=O)(=O)N2C[C@H]3CCCC[C@H]3C2)cc1N1[C@@H]2CC[C@H]1CN(C(=O)c1ccc(F)cc1Cl)C2 [compound 015, [(1S,5R)-8-[5-[[(3aS,7aR)-1,3,3a,4,5,6,7,7a-octahydroisoindol-2-yl]sulfonyl]-2-methoxy-phenyl]-3,8-diazabicyclo[3.2.1]octan-3-yl]-(2-chloro-4-fluoro-phenyl)methanone] | < 1
12 | CCCN(C)S(=O)(=O)c1ccc(O)c(N2[C@@H]3CC[C@H]2CN(C(=O)c2ccc(F)cc2Cl)C3)c1 [compound 036, 3-[(1S,5R)-3-(2-chloro-4-fluoro-benzoyl)-3,8-diazabicyclo[3.2.1]octan-8-yl]-4-hydroxy-N-methyl-N-propyl-benzenesulfonamide] | 1 to 10
13 | CN(C)c1ccc(S(=O)(=O)N2CCC(c3ccccc3)CC2)cc1N1[C@@H]2CC[C@H]1CN(C(=O)c1ccc(F)cc1Cl)C2 [compound 121, (2-chloro-4-fluoro-phenyl)-[(1S,5R)-8-[2-(dimethylamino)-5-[(4-phenyl-1-piperidyl)sulfonyl]phenyl]-3,8-diazabicyclo[3.2.1]octan-3-yl]methanone] | < 1
14 | COc1ccc(S(=O)(=O)N2CCC(OCc3ccccc3)C2)cc1N1C2CCC1CN(C(=O)c1ccc(F)cc1Cl)C2 (racemic) [compound 037, [(1S,5R)-8-[5-[(3SR)-3-benzyloxypyrrolidin-1-yl]sulfonyl-2-methoxy-phenyl]-3,8-diazabicyclo[3.2.1]octan-3-yl]-(2-chloro-4-fluoro-phenyl)methanone] | 1 to 10
15 | O=C(c1ccc(F)cc1Cl)N1C[C@H]2CC[C@@H](C1)N2c1cc(S(=O)(=O)N2CCC(c3ccccc3)CC2)cc2c1OCC2 [compound 055, (2-chloro-4-fluoro-phenyl)-[(1S,5R)-8-[5-[(4-phenyl-1-piperidyl)sulfonyl]-2,3-dihydrobenzofuran-7-yl]-3,8-diazabicyclo[3.2.1]octan-3-yl]methanone] | < 1
16 | CN(C(C)(C)C)S(=O)(=O)c1cc(Cl)c(OCc2cccnc2)c(N2[C@@H]3CC[C@H]2CN(C(=O)c2ccc(F)cc2Cl)C3)c1 [compound 137] | < 1
17 | CCN(CC)S(=O)(=O)c1cnc(OCc2ccccc2)c(N2[C@@H]3CC[C@H]2CN(C(=O)c2ccc(F)cc2Cl)C3)c1 [compound 034, 6-benzyloxy-5-[(1S,5R)-3-(2-chloro-4-fluoro-benzoyl)-3,8-diazabicyclo[3.2.1]octan-8-yl]-N,N-diethyl-pyridine-3-sulfonamide] | < 1
18 | CC(C)(C)NS(=O)(=O)c1cc(Cl)c(Cl)c(N2[C@@H]3CC[C@H]2CN(C(=O)c2ccc(F)cc2Cl)C3)c1 [compound 075, N-tert-butyl-3,4-dichloro-5-[(1S,5R)-3-(2-chloro-4-fluoro-benzoyl)-3,8-diazabicyclo[3.2.1]octan-8-yl]benzenesulfonamide] | < 1
19 | COc1ccc(S(=O)(=O)N2CCCC2)cc1N1[C@@H]2CC[C@H]1CN(C(=O)c1ccc(F)cc1Cl)C2 [compound 004, (2-chloro-4-fluoro-phenyl)-[(1S,5R)-8-(2-methoxy-5-pyrrolidin-1-ylsulfonyl-phenyl)-3,8-diazabicyclo[3.2.1]octan-3-yl]methanone] | 1 to 10
20 | CC(C)(C)NS(=O)(=O)c1cc(F)c(O)c(N2[C@@H]3CC[C@H]2CN(C(=O)c2ccc(F)cc2Cl)C3)c1 [compound 085, N-tert-butyl-3-[(1S,5R)-3-(2-chloro-4-fluoro-benzoyl)-3,8-diazabicyclo[3.2.1]octan-8-yl]-5-fluoro-4-hydroxy-benzenesulfonamide] | < 1
21 | Cc1cc(S(=O)(=O)NC(C)(C)C)cc(N2[C@@H]3CC[C@H]2CN(C(=O)c2ccc(F)cc2Cl)C3)c1O [compound 093] | < 1
22 | CN(CC1CC1)S(=O)(=O)c1cc(F)c(O)c(N2[C@@H]3CC[C@H]2CN(C(=O)c2ccc(F)cc2Cl)C3)c1 [compound 086, 3-[(1S,5R)-3-(2-chloro-4-fluoro-benzoyl)-3,8-diazabicyclo[3.2.1]octan-8-yl]-N-(cyclopropylmethyl)-5-fluoro-4-hydroxy-N-methyl-benzenesulfonamide] | < 1
23 | CCCN(C)S(=O)(=O)c1ccc(OC)c(N2CCN(C(=O)c3ccc(F)cc3C(F)(F)F)CC2C)c1 (racemic) [compound 021, 4-methoxy-N-methyl-N-propyl-3-[rac-(2S)-4-[4-fluoro-2-(trifluoromethyl)benzoyl]-2-methyl-piperazin-1-yl]benzenesulfonamide] | 1 to 10
24 | O=C(c1ccc(F)cc1Cl)N1C[C@H]2CC[C@@H](C1)N2c1cc(S(=O)(=O)N2CCC(c3ccccc3)CC2)cc(C(F)(F)F)c1O [compound 087] | < 1
25 | O=C(c1ccc(F)cc1Cl)N1C[C@H]2CC[C@@H](C1)N2c1cc(S(=O)(=O)N2CCC(F)CC2)cc(Cl)c1O [compound 097, (2-chloro-4-fluoro-phenyl)-[(1S,5R)-8-[3-chloro-5-[(4-fluoro-1-piperidyl)sulfonyl]-2-hydroxy-phenyl]-3,8-diazabicyclo[3.2.1]octan-3-yl]methanone] | < 1
26 | CN(C(C)(C)C)S(=O)(=O)c1cc(Cl)c(O)c(N2[C@@H]3CC[C@H]2CN(C(=O)c2ccc(F)cc2Cl)C3)c1 [compound 107] | < 1
27 | O=C(c1cc(F)c(F)cc1Cl)N1C[C@H]2CC[C@@H](C1)N2c1cc(S(=O)(=O)N2CCC(c3ccccc3)CC2)cc2c1OCC2 [compound 061, (2-chloro-4,5-difluoro-phenyl)-[(1S,5R)-8-[5-[(4-phenyl-1-piperidyl)sulfonyl]-2,3-dihydrobenzofuran-7-yl]-3,8-diazabicyclo[3.2.1]octan-3-yl]methanone] | < 1
